In patent publication US20250040539A1, “COMPOSITION COMPRISING AN ANTIMICROBIAL AGENT AND A CARBOXAMIDE” (BASF SE, priority 2021, published 2025):

Columns and labels:
Format in all cases: cell-based
[1] = system: bacterial mix: Escherichia coli DSM 1576, Alcaligenes faecalis DSM 13644, Pseudomonas aeuginosa ATCC 15442, Staphylococcus aureus ATCC 6538, Burkholderia …; experiment: Preservative activity of a basic composition (10% PG in water, pH 7) with 2-phenoxyethanol against bacterial contamination (Example 2.1); settings: 10% PG + 0.4% PE, no amide (Comparative 2)
[2] = system: bacterial mix: Escherichia coli DSM 1576, Alcaligenes faecalis DSM 13644, Pseudomonas aeruginosa ATCC 15442, Staphylococcus aureus ATCC 6538, Burkholderia …; experiment: Preservative activity in a manual dishwashing composition (MDW, pH 7.1) with 1.0% 2-phenoxyethanol against bacterial mix (Example 2.5); settings: MDW + 1.0% PE, no amide (Comparative)
Method: A manual dish wash detergent (MOW) of pH 7.1 containing the following components was used:
The samples were contaminated with a bacterial mix consisting of: • Escherichia coli DSM 1576 • Alcaligenes faecalis DSM 13644 • Pseudomonas aeruginosa ATCC 15442 • Staphylococcus aureus ATCC 6538 • Burkholderia cepacia DSM 7288 • Pseudomonas putida DSM 12735
The samples were inoculated with the bacterial mix at day 0 and 7 to obtain 10E+06 to 10E+07 CFU/ml inoculation in the test sample and stored at 25° C. for 21 days. CFU was determined before re-inoculation at day 7 and on day 21.
Any CFU value at day 7 (d7) or day 21 (d21) obtained with a sample according to the invention containing 2-phenoxyethanol and amide (MDW+1.0% PE+1.0% Amide) lower than the respective value of the comparative example (MDW+1% by weight of 2-phenoxyethanol) indicates a better performance.

[3] = system: fungal mix: Aspergillus brasiliensis DSM 1988, Rhodotorula mucilaginosa DSM 13621, Yarrowia lipolytica DSM 8218; experiment: Preservative activity in a diluted non-ionic surfactant solution (1% Lutensol ON 70, pH 7.0) with 2-phenoxyethanol against fungal mix (Example 1.6); settings: Surfactant solution + 0.81% PE, no amide (Comparative 2)
Description: A surfactant solution in phosphate buffer of pH 7.0 containing 1% by weight of Lutensol ON 70, a C10-fatty alcohol ethoxylated with 7EO, was used.
(§1) The samples were contaminated with a fungal mix consisting of: • Aspergillus brasiliensis DSM 1988 • Rhodotorula mucilaginosa DSM 13621 • Yarrowia lipolytica DSM 8218
The samples were inoculated with the fungal mix at day 0 and 7 to obtain 1-3×10E+05 CFU/ml inoculation in the test sample consisting of the above-defined surfactant solution and stored at 25° C. for 14 days. CFU was determined before re-inoculation at day 7, and on day 14.
Any CFU value at d7 and d14 obtained with a surfactant solution sample of the invention containing 2-phenoxyethanol and amide (surfactant solution+0.81% PE+0.09% of amide) lower than the respective value of the “comparative 2” example (surfactant solution+0.81% by weight of 2-phenoxyethanol) indicates a better performance of the inventive combination of 2-phenoxyethanol with the amide.

[4] = system: fungal mix: Aspergillus brasiliensis DSM 1988, Rhodotorula mucilaginosa DSM 13621, Yarrowia lipolytica DSM 8218; experiment: Preservative activity in a manual dishwashing composition (MDW, pH 7.1) with 1.0% 2-phenoxyethanol against fungal mix (Example 1.2); settings: MDW + 1.0% PE, no amide (Comparative)
Method: A manual dish wash detergent (MDW) of pH 7.1 containing the following components was used:
as §1
The samples were inoculated with the fungal mix at day 0 and 7 to obtain 1-3×10E+05 CFU/ml inoculation in the test sample consisting of the above-defined dish wash detergent MDW and stored at 25° C. for 21 days. CFU was determined before re-inoculation at day 7, and on days 14 and 21.
Any CFU value at d7, d14 or d21 obtained with a MDW sample of the invention containing 2-phenoxyethanol and amide (MDW+1.0% PE+x % of Amide) lower than the respective value of the comparative example (MDW+1.0% by weight of 2-phenoxyethanol) indicates a better performance of the inventive combination of 2-phenoxyethanol with the amide.

[5] = system: bacterial mix: Escherichia coli DSM 1576, Alcaligenes faecalis DSM 13644, Pseudomonas aeuginosa ATCC 15442, Staphylococcus aureus ATCC 6538, Burkholderia …; experiment: Preservative activity of a basic composition (10% PG in water, pH 7) with 2-phenoxyethanol against bacterial contamination (Example 2.1); settings: 10% PG + 0.36% PE + 0.04% amide
Method: (§2) An aqueous composition of pH 7 comprising 10% by weight of propyleneglycol (PG) as organic solvent, 0.36% by weight of 2-phenoxyethanol (PE) as antimicrobial and 0.04% by weight of the amide listed in the below table was tested for its preserving activity against bacterial contamination (the weight percentages relate to the total weight of the composition). For this purpose, the samples were contaminated with a bacterial mix consisting of: • Escherichia coli DSM 1576 • Alcaligenes faecalis DSM 13644 • Pseudomonas aeuginosa ATCC 15442 • Staphylococcus aureus ATCC 6538 • Burkholderia cepacia DSM 7288 • Pseudomonas putida DSM 12735
The samples were inoculated with the bacterial mix at day 0, 7 and 14 to obtain 10E+06 to 10E+07 CFU/ml inoculation in the test samples (compositions listed in the below table) consisting of 10% by weight of propylene glycol in water and stored at 25° C. for 21 days.
CFU was determined before re-inoculation at days 7 and 14, and on day 21.

[6] = system: bacterial mix: Escherichia coli DSM 1576, Alcaligenes faecalis DSM 13644, Pseudomonas aeruginosa ATCC 15442, Staphylococcus aureus ATCC 6538, Burkholderia …; experiment: Preservative activity of a basic composition (10% PG in water, pH 7) with 4,4'-dichloro-2-hydroxydiphenyl ether (diclosan) against bacterial contamination (Example 2.2); settings: day 7
Method: as §2, with “0.015%” for “0.36%”, “4,4′-dichloro-2-hydroxydiphenyl ether (diclosan)” for “2-phenoxyethanol (PE)”, “0.04 or 0.1%” for “0.04%”, “amides” for “amide”, “aeruginosa” for “aeuginosa”
The samples were inoculated with the bacterial mix at day 0 to obtain 10E+06 to 10E+07 CFU/ml inoculation in the test sample and stored at 25° C. for 7 days.
CFU was determined at day 7.
Any CFU value at day 7 (d7) obtained with a sample according to the invention containing diclosan and amide (10% PG+0.015% diclosan+Amide in water) lower than the respective value of the “comparative 3” example (10% by weight of propyleneglycol+0.015% by weight of 4,4′-dichloro-2-hydroxydiphenyl ether (diclosan) in water) indicates a better performance.

Row | SMILES | d7 [CFU/ml] ([1]; day 7) | d14 [CFU/ml] ([1]; day 14) | d21 [CFU/ml] ([1]; day 21) | d7 [CFU/ml] ([2]; day 7) | d21 [CFU/ml] ([2]; day 21) | d7 [CFU/ml] ([3]; day 7) | d14 [CFU/ml] ([3]; day 14) | d7 [CFU/ml] ([4]; day 7) | d14 [CFU/ml] ([4]; day 14) | d21 [CFU/ml] ([4]; day 21) | d7 [CFU/ml] ([5]; day 7) | d14 [CFU/ml] ([5]; day 14) | d21 [CFU/ml] ([5]; day 21) | d7 [CFU/ml] ([6]; 10% PG + 0.015% diclosan + 0.1% amide) | d7 [CFU/ml] ([6]; 10% PG + 0.1% amide, no diclosan (Comparative 1b))
1 | OCCOc1ccccc1 [PE, 2-phenoxyethanol, reference compound] | 65,000 CFU/ml | >100,000 CFU/ml | >100,000 CFU/ml | 820 CFU/ml | 135 CFU/ml | 16,500 CFU/ml | 45,00 CFU/ml | 38,000 CFU/ml | 27,000 CFU/ml | 3,700 CFU/ml | – | – | – | – | –
2 | CCCCCCCCCC(=O)N(C)C [n-Decanoyl-N,N-dimethylamide] | – | – | – | – | – | – | – | – | – | – | <10 CFU/ml | <10 CFU/ml | <10 CFU/ml | 43,000 CFU/ml | >100,000 CFU/ml
